Test results reported in patent publication US20180161262A1, “Cosmetic Method and Dermatological Topical Agent for Use Therein, Migration Imparting Agent, and Method for Screening Components for Use in Cosmetic Method for Improving Skin State” (ROHTO PHARMACEUTICAL CO., LTD., priority 2015, published 2018).

Legend:
[1] = test system: human adipose-derived stem cells; assay: Confirmation test for migration imparting effect (96-well Boyden chamber, Calcein-AM fluorescence); assay type: cell-based; conditions: 20 hours; for Migration imparting effect, Ratio to blank (%): blank = 100%
Description: A medium of human adipose-derived stem cells (manufactured by Kurabo Industries Ltd.; cultured to the 7th passage in STEMLIFE medium [provided by Lifeline Cell Technology]) was replaced with DMEM/F12 medium (manufactured by Life Technologies Corp.), followed by culture for additional 20 hours.
(§1) Meanwhile, a medium in which a sample to be examined for the presence or absence of the migration imparting effect was dissolved at a predetermined concentration was prepared by using 0.1% by volume of fetal bovine serum (nutritional source). Also, DMEM/F12 medium containing 0.1% by volume of fetal bovine serum and not containing the sample (blank) was provided.
Then, the prepared medium was supplied at 200 μL per well to lower wells of a 96-well Boyden chamber (manufactured by Corning Inc., model number: 3384) having a membrane pore size of 8 μm. Also, the human adipose-derived stem cells cultured for 20 hours in the DMEM/F12 medium were inoculated at 30000 cells per well to upper wells of the Boyden chamber and cultured at 37° C. for 20 hours under 5% by volume of CO2.
1.2 μL/mL of Calcein-AM (fluorescent dye, manufactured by Molecular Probes/Thermo Fisher Scientific Inc.) dissolved at 1.66 mg/mL in DMSO (manufactured by Wako Pure Chemical Industries, Ltd.) was added to 10× cell dissociation solution (cell dissolution solution, manufactured by Trevigen Inc.) diluted 10-fold with sterilized water to thereby prepare an index solution for fluorescence emission having the correlation between the number of human adipose-derived stem cells and the strength of fluorescence emission.
The media in the upper and lower wells were taken out of the Boyden chamber and washed with PBS(−) (manufactured by Dojindo Laboratories), and then, the index solution for fluorescence emission was supplied at 100 μL per well to the lower wells and incubated at 37° C. for 1 hour under 5% by volume of CO2 in the dark. Then, the index solution in the lower wells after the incubation was transferred to a 96-well plate (manufactured by Greiner Bio One International GmbH) having black walls and a transparent bottom, and fluorescence intensity (excitation wavelength: 485 nm, detection wavelength: 520 nm) was measured. Each test was conducted in triplicate (n=3).
Specifically, since there is a correlation between the number of human adipose-derived stem cells and the strength of fluorescence emission as mentioned above, the presence or absence of the migration imparting effect was confirmed by determining increase or decrease in the fluorescence intensity of the lower wells by using the fluorescence intensity obtained by the assay of the blank as a reference (100%). As for the determination of the presence or absence of migration, the “migration imparting effect was present” was determined provided that the rate of stem cell migration (rate of increase with respect to the blank) was 5% or more (score + or more) according to the score shown in Table 1 below.
(§2) It is known that the doubling time of the present cells is usually 24 hours or longer, and in the confirmation test for the migration imparting effect, the human adipose-derived stem cells are taken out 20 hours after inoculation and washed, followed by the measurement of the strength of fluorescence emission. Accordingly, in this test, the growth effect of the human adipose-derived stem cells themselves is not included, and only increase in cells by migration is evaluated. On the other hand, in the confirmation test for the growth promoting effect, absorbance 72 hours after inoculation of the human adipose-derived stein cells is measured, and increase in cells by self-growth is simply evaluated.

[2] = test system: human adipose-derived stem cells; assay: Confirmation test for growth promoting effect (WST-8 method, Cell Counting Kit-8); assay type: cell-based; conditions: 72 hours; for Growth promoting effect, Ratio to blank (%): blank = 100%
Description: as §1, with “A” for “Meanwhile, a”, “using DMEM/F12 medium (manufactured by Life Technologies Corp.) containing” for “using”, “serum.” for “serum (nutritional source).”, “unsupplemented with” for “and not containing”
Then, human adipose-derived stem cells (manufactured by Kurabo Industries Ltd.; cultured to the 5th passage in STEMLIFE medium [provided by Lifeline Cell Technology]) were inoculated at 3000 cells per well with the prepared medium to a 96-well plate and cultured at 37° C. for 72 hours under 5% by volume of CO2, and then, respiratory activity of the cells was measured as an index for whether or not the cells were activated, by the WST-8 method using Cell Counting Kit-8 (manufactured by Dojindo Laboratories). Specifically, after the human adipose-derived stem cells were cultured for 72 hours, the medium of each well was replaced with DMEM/F12 medium containing Cell Counting Kit-8, which was then incubated at 37° C. for 4 hours under 5% by volume of CO2 in the dark, and then, absorbance at a wavelength of 450 nm (control wavelength: 630 nm) was measured. Each test was conducted in triplicate (n=3).
Specifically, the degree of the respiratory activity (proportional to the number of cells) was measured as the absorbance (wavelength: 450 nm) of the solution by using the WST-8 reagent. Then, the presence or absence of the growth promoting effect was confirmed by determining increase or decrease in the absorbance of the sample-containing prepared medium by using the absorbance obtained by the assay of the blank medium as a reference (100%). As for the determination of the presence or absence of growth promotion, the “stem cell growth promoting effect was present” was determined provided that the rate of stem cell growth (rate of growth with respect to the blank) was 5% or more (score + or more) according to the score shown in Table 2 below.
as §2

[3] = applied concentration 0.01 mg/mL
[4] = applied concentration 0.1 mg/mL
[5] = applied concentration 1.0 mg/mL
[6] = applied concentration 0.001 mg/mL

Substance: caprooyl tetrapeptide-3
- Migration imparting effect, Evaluation (score) [1, 3]: + (105 or more and less than 120)
- Migration imparting effect, Ratio to blank (%) [1, 3]: 109%
- Migration imparting effect, Evaluation (score) [1, 4]: +++ (130 or more and less than 140)
- Migration imparting effect, Ratio to blank (%) [1, 4]: 133%
- Migration imparting effect, Evaluation (score) [1, 5]: +++ (130 or more and less than 140)
- Migration imparting effect, Ratio to blank (%) [1, 5]: 132%
- Growth promoting effect, Evaluation (score) [2, 3]: ++ (120 or more and less than 130)
- Growth promoting effect, Ratio to blank (%) [2, 3]: 120%
- Growth promoting effect, Evaluation (score) [2, 4]: ++ (120 or more and less than 130)
- Growth promoting effect, Ratio to blank (%) [2, 4]: 123%
- Growth promoting effect, Evaluation (score) [2, 5]: + (105 or more and less than 120)
- Growth promoting effect, Ratio to blank (%) [2, 5]: 117%

Substance: copper tripeptide-1
- Migration imparting effect, Evaluation (score) [1, 6]: +++ (130 or more and less than 140)
- Migration imparting effect, Ratio to blank (%) [1, 6]: 130%
- Migration imparting effect, Evaluation (score) [1, 3]: ++ (120 or more and less than 130)
- Migration imparting effect, Ratio to blank (%) [1, 3]: 125%
- Migration imparting effect, Evaluation (score) [1, 4]: +++ (130 or more and less than 140)
- Migration imparting effect, Ratio to blank (%) [1, 4]: 131%
- Growth promoting effect, Evaluation (score) [2, 3]: +++ (130 or more and less than 140)
- Growth promoting effect, Ratio to blank (%) [2, 3]: 130%
- Growth promoting effect, Evaluation (score) [2, 4]: ++++ (140 or more)
- Growth promoting effect, Ratio to blank (%) [2, 4]: 160%
